Measured values from paper PMC9867837 (Cancer letters, 2022).
Converted amounts (≈) assume the structure as drawn. “And” between values parts separate entries of the source, which are not always exact repeats. Equal entries are not always repeated. Where two headings read alike, the source gives them in different places.

Tests used:
pY705Stat3 = biological target: T1, pY705Stat3 (Homo sapiens, UniProt P40763); assay: Western blotting for pY705Stat3 in treated breast cancer cells; format: cell-based; settings: for Effect on constitutive Stat3 Tyr phosphorylation (pYStat3) in cells: MDA-MB-468 and MDA-MB-231, 0–5 μM, 1 or 2 h
T1 construct: endogenous in cells
T1 sequence (P40763 whole entry): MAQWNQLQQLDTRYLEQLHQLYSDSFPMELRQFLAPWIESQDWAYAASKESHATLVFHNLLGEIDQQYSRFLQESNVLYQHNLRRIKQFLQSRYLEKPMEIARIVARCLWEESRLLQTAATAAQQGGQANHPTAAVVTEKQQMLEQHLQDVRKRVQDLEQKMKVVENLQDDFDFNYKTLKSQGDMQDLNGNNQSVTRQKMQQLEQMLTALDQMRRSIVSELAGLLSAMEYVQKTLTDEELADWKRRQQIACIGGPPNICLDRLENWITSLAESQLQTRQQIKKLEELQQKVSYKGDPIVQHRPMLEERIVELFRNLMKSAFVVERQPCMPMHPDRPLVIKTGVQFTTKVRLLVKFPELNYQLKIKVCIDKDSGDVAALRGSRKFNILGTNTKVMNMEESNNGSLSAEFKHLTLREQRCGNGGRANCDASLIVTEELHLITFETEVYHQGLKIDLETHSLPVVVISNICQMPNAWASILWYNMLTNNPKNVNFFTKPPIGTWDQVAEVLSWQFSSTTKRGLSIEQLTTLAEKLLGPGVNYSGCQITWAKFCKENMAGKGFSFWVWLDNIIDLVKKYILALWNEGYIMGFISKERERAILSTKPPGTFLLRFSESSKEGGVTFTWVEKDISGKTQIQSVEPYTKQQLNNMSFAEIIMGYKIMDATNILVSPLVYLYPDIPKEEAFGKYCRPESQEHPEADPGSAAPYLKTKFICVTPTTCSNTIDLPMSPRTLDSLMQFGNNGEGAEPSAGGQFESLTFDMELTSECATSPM
Protocol: These studies were performed as previously described. Details are presented in Supplementary Information, “Methods”.
Nuclear extracts and whole-cell lysates were prepared, and samples of equal total protein were subjected to Stat3 DNA-binding assay/EMSA analysis using the hSIE probe, or to SDS/PAGE and Western blotting analysis for pY705Stat3, Stat3, or GAPDH [11, 12]. […] Depending on the concentration (1, 3, or 5 μM), the inhibitory effects of the azetidine compounds were observed relatively early, at 30–60 min, on both Stat3 DNA-binding activity (Fig. 4C) and Tyr phosphorylation (Fig. 4D, pY705Stat3).
During confluence of cultured cells, the cell-to-cell adhesion and cadherin engagement trigger increased Tyr705Stat3 phosphorylation in a variety of cell lines. To investigate the impact of cell-to-cell adhesion and cadherin engagement, parallel studies were conducted in which cells in culture were untreated or treated with 1 or 2 μM H182 for 0.5–48 h, and whole-cell lysates prepared and immunoprobed for pTyr705Stat3. […] After 48-h incubation, the cell confluency of the DMSO-treated samples reached to around 60% for MDA-MB-468 cells and 80% for MDA-MB-231 cells. […] In the untreated cells, Stat3 (red punctate) staining was predominantly localized in the nucleus of the tumor cells, with weak presence in the cytoplasm (Fig. 4F, 0, Stat3, red merged with blue DAPI nuclear staining). […] Total Stat3 protein levels in all of these studies were unchanged, and GAPDH, tubulin or β-actin levels show equal protein loading. The percent changes induced by H182 treatment on Stat3 DNA-binding activity and phosphorylation in the treated cells are shown.
These studies were performed as previously described [1 -3] . Briefly, snap-frozen tumor tissues or cultured cells treated or not were harvested and whole-cell or tissue lysates were prepared in radioimmunoprecipitation assay (RIPA) buffer. Samples of equal total protein were subjected to SDS - PAGE and immunoblotting analysis. Primary antibodies used were anti- Stat3, pY705-Stat3, pS727Stat3, […]
Akt, pT202/Y204Erk1/2 (p44/42), Erk1/2, PARP , caspase 3, c-Myc, survivin, VEGF, β-actin, α/β-tubulin, and GAPDH. For the studies of the effects of cell density and confluence on pY705Stat3, cells were seeded […] in culture dishes. The next day, cells were untreated (DMSO control, […]
0.1%) or treated at the same time with 1 or 2 µM H182, allowed to incubate for the indicated time and then harvested for whole-cell lysate preparation and SDS -PAGE / immunoblotting analy sis. After 48-h incubation, the cell confluency of the DMSO-treated samples reached to around 60% for MDA-MB -468 cells and 80% for MDA- MB-231 cells. […]

MDA-MB-468 cells = assay: CyQuant viable cell number assay, MDA-MB-468; format: cell-based, human; settings: read-out: IC50 viable cell numbers, MDA-MB-468
Protocol: (§1) CyQuant assay was performed to evaluate compounds as previously reported. Details are presented in Supplementary Information, “Methods”. […]
(§2) 1.2.6. Cell viability assays
(§3) CyQuant assay was performed to evaluate compounds as previously reported [1 -3] . Briefly, cells (5 x 10^3 per well, 100 µl) in culture in 96-well plates were treated once with 0 -10 µM concentrations of H120, H105, […]
(§4) concentration of H182 for 6 h and then treated with 0- 100 nM docetaxel or 0-20 µM cisplatin for a total of 72 h. Viable cell numbers were assessed by a CyQuant cell proliferation kit according to the manufacturer’s instructions (Thermo/Life Technologies Corp, Carlsbad, CA). Viable cell numbers were normalized to that of DMSO (control)-treated samples. […]

MCF-10A cells = assay: CyQuant viable cell number assay, MCF-10A; format: cell-based, human; settings: 72 h, read-out: IC50 viable cell numbers, MCF-10A
Protocol: as §1, §2, §3, §4

HCC1937 cells = assay: CyQuant viable cell number assay, HCC1937; format: cell-based, human; settings: read-out: IC50 viable cell numbers, HCC1937
Protocol: as §1, §2, §3, §4

[1] = test system: normal human mesothelial cells; assay: CyQuant viable cell number assay, normal mesothelial cells; format: cell-based; settings: 72 h, read-out: IC50 viable cell numbers, normal human mesothelial cells
Protocol: as §1, §2, §3, §4

Solubility = format: physicochemical
Protocol: Solubility, human (HLM) and mouse liver microsomal (MLM), and plasma stability studies were performed by Eurofins Cerep Panlabs and Eurofin Discovery Services (www.eurofins.com/PharmaDiscovery), while protein binding studies were performed by Sanford Burnham Prebys Chemical Biology & Drug Discovery Core using standard protocols.

[2] = aqueous buffer, PBS pH 7.4, read-out: Solubility PBS pH 7.4

Row | Solubility SGF (Solubility; simulated gastric fluid) [µg/mL] | Solubility SIF (Solubility; simulated intestinal fluid) [µg/mL] | SMILES | Effect on constitutive Stat3 Tyr phosphorylation (pYStat3) in cells (pY705Stat3) | IC50 (MDA-MB-468 cells; Homo sapiens, MDA-MB-468, 72 h) [µM] | IC50 (MCF-10A cells) [µM] | IC50 (MCF-10A cells; Homo sapiens, MCF-10A) [µM] | IC50 (HCC1937 cells; 72 h) [µM] | IC50 (HCC1937 cells; Homo sapiens, HCC1937, 72 h) [µM] | IC50 [1] [µM] | solubility (Solubility; [2]) [µg/mL] | Duration of inhibition of Stat3 activation (pY705Stat3) (pY705Stat3; 3 μM H182) | Effect on EGF-induced pY705Stat3 (pY705Stat3; MDA-MB-468 cells, 1–3 μM H182) | IC50 (MDA-MB-468 cells; 72 h) [µM] | solubility (Solubility; simulated gastric fluid, read-out: Solubility SGF) | solubility (Solubility; simulated intestinal fluid, fassgf or other biorelevant, read-out: Solubility SIF) [µg/mL]
1 | 104 (≈ 161 µM) | 123 (≈ 190 µM) | O=C([C@H]1CCN1S(=O)(=O)c1c(F)c(F)c(F)c(F)c1F)N(Cc1ccc(C2CCCCC2)cn1)c1ccc2c(=O)[nH]cnc2c1 [Compound H172] | dose-dependent inhibition | 1.5 | 4 | 3.8 to 4 | 4.8 | 3.6 to 4.3 | 4.9 to 9.2 | 6.3 (≈ 9.73 µM) |  |  |  |  | 
2 |  |  | O=C([C@H]1CCN1S(=O)(=O)c1c(F)c(F)c(F)c(F)c1F)N(Cc1ccc(C2CCCCC2)cn1)c1ccc2c(=O)[nH]ncc2c1 [Compound H182] | dose-dependent inhibition | 1 | 3.8 | 3.8 to 4 | 3 | 3.6 to 4.3 | 4.9 to 9.2 | 3 (≈ 4.63 µM) | sustained inhibition of Stat3 activation for up to 48 h | inhibited EGF-induced pY705Stat3 in MDA-MB-468 cells in a dose-dependent manner | 1.1 | 130 µg/mL and 132 µg/mL | 128 (≈ 198 µM)
